Experiments:
[1] = target: T1, JAK2 JH2 (Homo sapiens, UniProt O60674); assay: JAK2 JH2 TR-FRET Assay; type: binding; settings: JAK2 JH2 1 nM, Tracer ZE84-0003 10 nM
T1 construct: Enzyme: JAK2 JH2, His-Avi-Tag, Biotin-Labeled (BPS Bioscience, Cat #79074) 1 nM; His; purchased BPS Bioscience 79074
Protocol: Assay Buffer 1×: • 20 mM HEPES pH 7.2-7.4; • 10 mM MgCl2; • 0.015% Brij-35; • 2 mM DTT; • 0.05 mg/ml BSA.
Final assay concentrations: • DMSO: 0.25%; • Streptavidin Tb-cryptate (Cisbio, Cat #610SATLB) 0.2 nM; • Enzyme: JAK2 JH2, His-Avi-Tag, Biotin-Labeled (BPS Bioscience, Cat #79074) 1 nM; • Probe: Tracer ZE84-0003 (ChemRar) 10 nM.
Materials: • Reaction plate: ProxiPlate-384 Plus White Plate (PerkinElmer); • Dilution plate: Diamond Well Plate (Axygen, Cat #P-384-120 SQ-C-S); • Compounds plate: Diamond Well Plate (Axygen, Cat #P-384-120 SQ-C-S).
Assay protocol: • 1. Prepare 400× solutions of compounds in DMSO into Compounds plate; • 2. Prepare Dilution plate: add 39 μL of 1× Assay buffer per well of Dilution plate; • 3. Prepare 2×Tb-cryptate mix in 1× Assay buffer. Add 10 μL of 2×Tb-cryptate mix to K-(Tb-cryptate and Probe without Enzyme) wells and blank (Tb-cryptate without Probe and Enzyme) wells; • 4. Add JAK2 JH2 into the rest of 2×Tb-cryptate mix to make 2×JAK2 JH2+Tb-cryptate mix. Add 10 μL per well into Reaction plate; • 5. Centrifuge plate at 200 g for 1 min; • 6. Dilute 1 μL of 400× compounds in 39 μL 1× Assay buffer in Dilution plate; • 7. Add 2 μL of 10× compounds from Dilution plate to Reaction plate with 10 μL of JAK2 JH2+Tb-cryptate mix; • 8. Centrifuge plate at 200 g for 1 min; • 9. Pre-incubate Reaction plate with compounds 15 min; • 10. Prepare 2.5× Tracer mix; • 11. Add 8 μL of 2.5× Tracer mix into appropriate wells of Reaction plate; • 12. Centrifuge plate at 800 g for 3 min; • 13. Incubate at rt for 15 min; • 14. Measure Fluorescence using Microplate Reader (Ex: TR, Em1/Em2: 482/520). The results of this assay are shown in the Table B. The values of EC50 shown as a letters A-D, where: A≤0.01 μM; 0.01 μM<B≤0.05 μM; 0.05 μM<C≤0.1 μM; D>0.1.

[2] = Proliferation inhibition assay (CellTiter-Glo), Ba/F3 JAK2 wt; type: cell-based; settings: mouse, Ba/F3 (JAK2 wt) cells
Protocol: (§1) Ba/F3 (JAK2 wt) (ABM, T3076) cells and Ba/F3 (JAK2 V617F) (WuXi AppTec) cells were grown in RPMI-1640 (Gibco, cat. number 21870) supplemented with 10% FBS (Hyclone Laboratories Inc, Cat #SV30160.03), 1× Antibiotic-antimycotic (Gibco, Cat #15240-062), 2× Sodium pyruvate (Paneco, cat #F023), 2× Essential amino acids (Paneco, cat #F115/100), 1× Non-Essential amino acids (Paneco, cat #F116) at 37° C. in 5% CO2 atmosphere.
(§2) For the proliferation inhibition assay Ba/F3 (JAK2 wt) and Ba/F3 (JAK2 V617F) cells were seeded into a CellBIND® 384-well Flat Clear Bottom Black Polystyrene Microplates (Corning, USA, Cat #3770) at a density of 4000 cells per well in complete culture medium with or without 10 ng/ml rmIL-3 (RD systems, USA, Cat #403-ML-025) using Biomek FX/NX (384) liquid handler, 45 μl of cell suspension in complete culture medium per well. 500× compound's stocks in DMSO (Sigma Cat #D2650) were prepared in compounds plate (Diamond Well Plate, Axigen, Cat #P-384-120 SQ-C-S) applying Biomek 2000. 1 μl of 500× compounds stock was added to 49 μl of complete culture medium into Dilution plate (Diamond Well Plate, Axigen, Cat #P-384-120 SQ-C-S), mixed and then 5 μl of 10× compounds solution was transferred to cells using Biomek FX/NX (384) liquid handler. The centrifugation at 100 g for 1 min at Eppendorf 5810 followed. Final DMSO concentration in assay was 0.2%. All treatments were performed in technical and biological duplicates. Treated cells were incubated for 72 h at 37° C. with 5% CO2.
(§3) After 3 days of incubation, CellTiter-Glo Luminescent Cell Viability Assay (Promega) was performed. 10 μl of CellTiter-Glo (Promega, CAT #G7572) was added to the cells using Biomek FX/NX (384) liquid handler. The assay plate was centrifuged at 100 g for 1 min and luminescence signal was measured using Microplate Reader (CLARIOStar).

[3] = Proliferation inhibition assay (CellTiter-Glo), Ba/F3 JAK2 V617F; type: cell-based; settings: mouse, Ba/F3 (JAK2 V617F) cells; with 10 ng/ml rmIL-3, 72 h; read-out: Ba/F3 JAK2 V617F + IL3, CC50 3 days
Protocol: as §1, §2, §3

[4] = tested on: Ba/F3 (JAK2 V617F) cells; assay: as above; type: cell-based; settings: Mus musculus, BaF3; without IL3, 72 h; read-out: Ba/F3 JAK2 V617F, CC50 3 days
Protocol: as §1, §2, §3

[5] = with 10 ng/ml rmIL-3, 72 h, read-out: Ba/F3 JAK2 wt + IL3, CC50 3 days
[6] = without IL3, 72 h, read-out: Ba/F3 JAK2 wt, CC50 3 days

T1 sequence (O60674 545-809 limits assumed): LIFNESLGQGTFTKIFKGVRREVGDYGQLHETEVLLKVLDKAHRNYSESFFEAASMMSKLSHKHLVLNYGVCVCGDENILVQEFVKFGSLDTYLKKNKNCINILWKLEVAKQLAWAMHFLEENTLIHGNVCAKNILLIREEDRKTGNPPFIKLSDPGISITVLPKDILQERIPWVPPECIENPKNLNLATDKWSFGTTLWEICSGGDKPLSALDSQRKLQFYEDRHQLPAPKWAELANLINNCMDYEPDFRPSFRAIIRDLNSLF

| Structure (SMILES) | EC50 [1] [µM] | CC50 at 72 h [2, 5] [µM] | CC50 at 72 h [2, 6] [µM] | CC50 at 72 h [3] [µM] | CC50 [4] [µM] |
| --- | --- | --- | --- | --- | --- |
| COc1c(Nc2nc(Nc3cnn(-c4ccccc4)c3)ncc2C(N)=O)cccc1-c1ncn(C)n1 [Compound 6, 4-((2-Methoxy-3-(1-methyl-1H-1,2,4-triazol-3-yl)phenyl)amino)-2-((1-phenyl-1H-pyrazol-4-yl)amino)pyrimidine-5-carboxamide] | 0.01 to 0.05 | > 10 | > 10 | ≤ 0.5 | ≤ 0.5 |
| COc1c(Nc2nc(Nc3cnn(C4CCNCC4)c3)ncc2C(N)=O)cccc1-c1ncn(C)n1 [Compound 7, 4-((2-Methoxy-3-(1-methyl-1H-1,2,4-triazol-3-yl)phenyl)amino)-2-((1-(piperidin-4-yl)-1H-pyrazol-4-yl)amino)pyrimidine-5-carboxamide 2,2,2-trifluoroacetate] | 0.01 to 0.05 | > 10 | > 10 | > 10 | 1 to 5 |
| COc1c(Nc2nc(Nc3cnn(C4CCNCC4)c3)ncc2C(N)=O)cccc1-c1nc2ccccc2o1 [Compound 8, 4-[3-(1,3-benzoxazol-2-yl)-2-methoxy-anilino]-2-[[1-(4-piperidyl)pyrazol-4-yl]amino]pyrimidine-5-carboxamide] | ≤ 0.01 | > 10 | > 10 | 5 to 10 | 1 to 5 |
| COc1c(Nc2nc(Nc3cnn(C4CCCCC4)c3)ncc2C(N)=O)cccc1-c1ncn(C)n1 [Compound 11, 2-[(1-cyclohexylpyrazol-4-yl)amino]-4-[2-methoxy-3-(1-methyl-1,2,4-triazol-3-yl)anilino]pyrimidine-5-carboxamide] | ≤ 0.01 | 1 to 5 | 1 to 5 | ≤ 0.5 | ≤ 0.5 |
| COc1c(Nc2nc(Nc3cnn(C)c3)ncc2C(N)=O)cccc1-c1nc2ccccc2o1 [Compound 12, 4-[3-(1,3-benzoxazol-2-yl)-2-methoxy-anilino]-2-[(1-methylpyrazol-4-yl)amino]pyrimidine-5-carboxamide] | 0.01 to 0.05 | > 10 | > 10 | 1 to 5 | ≤ 0.5 |
| COc1c(Nc2nc(Nc3cnn(C4CCOCC4)c3)ncc2C(N)=O)cccc1-c1ncn(C)n1 [Compound 14, 4-[2-methoxy-3-(1-methyl-1,2,4-triazol-3-yl)anilino]-2-[(1-tetrahydropyran-4-ylpyrazol-4-yl)amino]pyrimidine-5-carboxamide] | ≤ 0.01 | > 10 | > 10 | 5 to 10 | ≤ 0.5 |
| COc1c(Nc2nc(Nc3cnn(C(C)C)c3)ncc2C(N)=O)cccc1-c1nc2ccccc2o1 [Compound 16, 4-[3-(1,3-benzoxazol-2-yl)-2-methoxy-anilino]-2-[(1-isopropylpyrazol-4-yl)amino]pyrimidine-5-carboxamide] | 0.01 to 0.05 | 5 to 10 | > 10 | 0.5 to 1 | ≤ 0.5 |
| COc1c(Nc2nc(Nc3c(C)nn(C)c3C)ncc2C(N)=O)cccc1-c1ncn(C)n1 [Compound 17, 4-[2-methoxy-3-(1-methyl-1,2,4-triazol-3-yl)anilino]-2-[(1,3,5-trimethylpyrazol-4-yl)amino]pyrimidine-5-carboxamide] | > 0.1 | > 10 | > 10 | > 10 | > 10 |
| CCn1nc(C)c(Nc2ncc(C(N)=O)c(Nc3cccc(-c4ncn(C)n4)c3OC)n2)c1C [Compound 18, 2-[(1-ethyl-3,5-dimethyl-pyrazol-4-yl)amino]-4-[2-methoxy-3-(1-methyl-1,2,4-triazol-3-yl)anilino]pyrimidine-5-carboxamide] | > 0.1 | > 10 | > 10 | > 10 | 5 to 10 |
| COc1c(Nc2nc(Nc3cnn(CC4CCCCC4)c3)ncc2C(N)=O)cccc1-c1ncn(C)n1 [Compound 22, 2-[[1-(cyclohexylmethyl)pyrazol-4-yl]amino]-4-[2-methoxy-3-(1-methyl-1,2,4-triazol-3-yl)anilino]pyrimidine-5-carboxamide] | 0.01 to 0.05 | 5 to 10 | 5 to 10 | 1 to 5 | ≤ 0.5 |
| COc1c(Nc2nc(Nc3cnn(CCC(C)C)c3)ncc2C(N)=O)cccc1-c1ncn(C)n1 [Compound 24, 2-[(1-isopentylpyrazol-4-yl)amino]-4-[2-methoxy-3-(1-methyl-1,2,4-triazol-3-yl)anilino]pyrimidine-5-carboxamide] | 0.01 to 0.05 | 5 to 10 | > 10 | 0.5 to 1 | ≤ 0.5 |
| CCCCCCn1cc(Nc2ncc(C(N)=O)c(Nc3cccc(-c4ncn(C)n4)c3OC)n2)cn1 [Compound 26, 2-[(1-hexylpyrazol-4-yl)amino]-4-[2-methoxy-3-(1-methyl-1,2,4-triazol-3-yl)anilino]pyrimidine-5-carboxamide] | 0.01 to 0.05 | 5 to 10 | 5 to 10 | 0.5 to 1 | ≤ 0.5 |
| COc1c(Nc2nc(Nc3cnn(CCCN(C)C)c3)ncc2C(N)=O)cccc1-c1ncn(C)n1 [Compound 28, 2-[[1-[3-(dimethylamino)propyl]pyrazol-4-yl]amino]-4-[2-methoxy-3-(1-methyl-1,2,4-triazol-3-yl)anilino]pyrimidine-5-carboxamide] | > 0.1 | > 10 | > 10 | > 10 | 5 to 10 |
| COc1c(Nc2nc(Nc3cnn(CCN(CC(C)C)CC(C)C)c3)ncc2C(N)=O)cccc1-c1ncn(C)n1 [Compound 29, 2-(1-(2-(Diisobutylamino)ethyl)-1H-pyrazol-4-ylamino)-4-(2-methoxy-3-(1-methyl-1H-1,2,4-triazol-3-yl)phenylamino)pyrimidine-5-carboxamide] | > 0.1 | 5 to 10 | 1 to 5 | 1 to 5 | ≤ 0.5 |
| COc1c(Nc2nc(Nc3cnn(C45CC6CC(CC(C6)C4)C5)c3)ncc2C(N)=O)cccc1-c1ncn(C)n1 [Compound 30, 2-((1-(1-Adamantyl)-1H-pyrazol-4-yl)amino)-4-((2-methoxy-3-(1-methyl-1H-1,2,4-triazol-3-yl)phenyl)amino)pyrimidine-5-carboxamide] | 0.01 to 0.05 | 1 to 5 | 1 to 5 | 0.5 to 1 | ≤ 0.5 |

Source: US20260217688A1, “INHIBITORS OF JAK2” (Llydaw Therapeutics, Inc., priority 2022, published 2026)
